Earlier results, collected in patent publication US9833411B2, “Solid oral dosage forms” (Enteris Biopharma, Inc., priority 2015, dated 2017).
Values after ≈ are worked out from the molar mass of the structure shown.

Columns and labels:
[1] = known formulations
[2] = test system: Methicillin-Resistant Staphylococcus aureus (MRSA), Stenotrophomonas maltophilia, Haemophilus influenzae, and Neisseria gonorrhoeae; settings: values reported

In the case of `CN(C)c1cc(NC(=O)CNC(C)(C)C)c(O)c2c1C[C@H]1C[C@H]3[C@H](N(C)C)C(O)=C(C(N)=O)C(=O)[C@@]3(O)C(O)=C1C2=O` [Tigecycline], the aqueous solubility is listed as “approximately 300 mg/mL”, the “maximal oral bioavailability % (% F)” value [1] is listed as “less than 5%” and the MIC [2] is listed as 2 mg/L (≈ 3.41 µM).
